Data as given in patent US8399465B2, “Compounds with two fused bicyclic heteroaryl moieties as modulators of leukotriene A4 hydrolase” (Janssen Pharmaceutica NV, priority 2009, dated 2013).
Where a name gives a salt, the structure may show the parent alone.

Columns and labels:
[1] = biological target: T1, recombinant human LTA4 hydrolase (rhLTA4H) (Homo sapiens, UniProt P09960); experiment: Recombinant human LTA4 hydrolase assay for LTA4 hydrolase inhibitor activity; type: biochemical; settings: rhLTA4H, LTB4 by immunoassay; single determination or average of two or more; mark after value = form tested: ′ free base, ″ hydrochloride, ^ formate; read-out: IC50
T1 construct: made in house; host or cells: Spodoptera frugiperda (Sf-9) cells, baculovirus (pFastBac1)
T1 sequence (P09960 1-611): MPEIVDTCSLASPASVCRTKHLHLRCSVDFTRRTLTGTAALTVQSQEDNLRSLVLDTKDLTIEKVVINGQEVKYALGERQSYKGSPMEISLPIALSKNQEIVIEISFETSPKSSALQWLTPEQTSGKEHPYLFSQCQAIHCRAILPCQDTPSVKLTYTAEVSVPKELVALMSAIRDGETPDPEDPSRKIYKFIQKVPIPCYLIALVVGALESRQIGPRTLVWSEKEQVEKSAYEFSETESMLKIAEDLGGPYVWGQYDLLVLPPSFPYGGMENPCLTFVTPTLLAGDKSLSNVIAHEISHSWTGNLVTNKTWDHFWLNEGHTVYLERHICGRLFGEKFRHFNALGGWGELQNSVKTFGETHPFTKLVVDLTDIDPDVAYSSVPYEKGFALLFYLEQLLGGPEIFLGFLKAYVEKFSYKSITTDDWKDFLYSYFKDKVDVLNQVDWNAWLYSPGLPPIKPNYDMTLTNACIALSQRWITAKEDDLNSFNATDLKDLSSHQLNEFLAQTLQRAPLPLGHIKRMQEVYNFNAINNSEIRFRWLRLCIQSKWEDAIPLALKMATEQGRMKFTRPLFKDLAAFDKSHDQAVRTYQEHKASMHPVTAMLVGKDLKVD
How it was run: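 LTB4 formation, measured by enzyme immunoassay, was the read-out. The enzyme, recombinant human LTA4H expressed in Sf-9 insect cells (10 ng per reaction), was exposed to compound for 10 min at room temperature before hydrolysed-ester LTA4 substrate was added for 30 min. Enzyme-free negatives were included.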

[2] = test system: LTB4 production in murine blood (LTA4H); experiment: LTB4 production by calcium ionophore-stimulated murine blood for LTA4H inhibitor activity; type: cell-based, CD-1 mice; settings: Mus musculus; murine blood diluted 1 in 15, A23187 stimulated; single determination or average; mark after value = form tested: ′ free base, ″ hydrochloride, ^ formate; read-out: IC50
Experimental: Assay 2: LTB4 Production by Calcium Ionophore-Stimulated Murine Blood for LTA4H Inhibitor Activity
CD-1 mice were sacrificed, and blood was collected in heparin-containing syringes by cardiac puncture. […] After the microtiter plate contents were incubated for 15 min at 37° C. in a humidified incubator, calcium ionophore A23187 (Sigma Chemical Co., St. Louis, Mo.) was added to each sample well (final concentration=7 μg/mL). The incubation was continued under the same conditions for an additional 30 min to allow LTB4 formation. The reaction was terminated by centrifugation (833×g, 10 min at 4° C.), and supernatants were analyzed for LTB4 by a commercially available enzyme-linked immunoassay (Cayman Chemical Co.) according to the manufacturer's instructions. Positive controls, under essentially identical conditions but without addition of an inhibitor compound, and negative unstimulated controls, containing all assay components except calcium ionophore, were routinely run in each experiment. […] The values presented here are the result of a single determination or an average of two or more determinations.

Structure (SMILES): NC1CCN(Cc2c[nH]c3cc(Oc4nc5ccccc5s4)ccc23)CC1 [Example 50, 1-[6-(Benzothiazol-2-yloxy)-1H-indol-3-ylmethyl]-piperidin-4-ylamine 2HCl]
- IC50 [1]: 28 nM
- IC50 [2]: 739 nM

Structure (SMILES): c1ccc2sc(Oc3ccc4c(CN5CC6CNCC6C5)c[nH]c4c3)nc2c1 (stereo not shown) [Example 51, 2-[3-(Hexahydro-pyrrolo[3,4-c]pyrrol-2-ylmethyl)-1H-indol-6-yloxy]-benzothiazole 2HCl]
- IC50 [1]: 45 nM
- IC50 [2]: 180 nM

Structure (SMILES): c1ccc2sc(Oc3ccc4c(CN5C[C@@H]6C[C@H]5CN6)c[nH]c4c3)nc2c1 [Example 52, (1S,4S)-2-[3-(2,5-Diaza-bicyclo[2.2.1]hept-2-ylmethyl)-1H-indol-6-yloxy]-benzothiazole 2HCl]
- IC50 [1]: 23 nM
- IC50 [2]: 411 nM

Structure (SMILES): CC(=O)NC1CCN(Cc2c[nH]c3cc(Oc4nc5ccccc5s4)ccc23)CC1 [Example 53, N-{1-[6-(Benzothiazol-2-yloxy)-1H-indol-3-ylmethyl]-piperidin-4-yl}-acetamide]
- IC50 [1]: 8 nM
- IC50 [2]: 204 nM

Structure (SMILES): CC(=O)N1CC2CN(Cc3c[nH]c4cc(Oc5nc6ccccc6s5)ccc34)CC2C1 (stereo not shown) [Example 54, 1-{5-[6-(Benzothiazol-2-yloxy)-1H-indol-3-ylmethyl]-hexahydro-pyrrolo[3,4-c]pyrrol-2-yl}-ethanone]
- IC50 [1]: 4 nM
- IC50 [2]: 165 nM

Structure (SMILES): CC(=O)N1C[C@@H]2C[C@H]1CN2Cc1c[nH]c2cc(Oc3nc4ccccc4s3)ccc12 [Example 55, (1S,4S)-1-{5-[6-(Benzothiazol-2-yloxy)-1H-indol-3-ylmethyl]-2,5-diaza-bicyclo[2.2.1]hept-2-yl}-ethanone]
- IC50 [1]: 3 nM
- IC50 [2]: 129 nM

Structure (SMILES): Cc1ccnc2nc(Oc3ccc4c(CN5CCOCC5)c[nH]c4c3)sc12 [Example 57, 7-Methyl-2-(3-morpholin-4-ylmethyl-1H-indol-6-yloxy)-thiazolo[4,5-b]pyridine]
- IC50 [1]: 93 nM
- IC50 [2]: 444 nM

Structure (SMILES): CCn1c(CN2CCCC2)cc2cc(Oc3nc4ccccc4s3)ccc21 [Example 64, 2-(1-Ethyl-2-pyrrolidin-1-ylmethyl-1H-indol-5-yloxy)-benzothiazole]
- IC50 [1]: 93 nM
- IC50 [2]: 2430 nM

Structure (SMILES): c1ccc2sc(Oc3ccc4[nH]c(CN5CCCCC5)cc4c3)nc2c1 [Example 65, 2-(2-Piperidin-1-ylmethyl-1H-indol-5-yloxy)-benzothiazole]
- IC50 [1]: 100 nM
- IC50 [2]: 1110 nM

Structure (SMILES): c1ccc2sc(Oc3ccc4[nH]c(CN5CCCC5)cc4c3)nc2c1 [Example 66, 2-(2-Pyrrolidin-1-ylmethyl-1H-indol-5-yloxy)-benzothiazole]
- IC50 [1]: 30 nM
- IC50 [2]: 1130 nM

Structure (SMILES): c1ccc2sc(Oc3ccc4cc(CN5CCCCC5)[nH]c4c3)nc2c1 [Example 67, 2-(2-Piperidin-1-ylmethyl-1H-indol-6-yloxy)-benzothiazole]
- IC50 [1]: 34 nM
- IC50 [2]: 295 nM

Structure (SMILES): c1ccc2sc(Oc3ccc4cc(CN5CCCC5)[nH]c4c3)nc2c1 [Example 68, 2-(2-Pyrrolidin-1-ylmethyl-1H-indol-6-yloxy)-benzothiazole]
- IC50 [1]: 20 nM
- IC50 [2]: 450 nM

Structure (SMILES): NC(=O)C1CCN(Cc2cc3ccc(Oc4nc5ccccc5s4)cc3[nH]2)CC1 [Example 69, 1-[6-(Benzothiazol-2-yloxy)-1H-indol-2-ylmethyl]-piperidine-4-carboxylic acid amide]
- IC50 [1]: 47 nM
- IC50 [2]: 1220 nM

Structure (SMILES): CC(=O)N[C@H]1C[C@H]2CC[C@@H](C1)N2Cc1cc2ccc(Oc3nc4ccccc4s3)cc2[nH]1 [Example 70, meso-endo-N-{8-[6-(Benzothiazol-2-yloxy)-1H-indol-2-ylmethyl]-8-aza-bicyclo[3.2.1]oct-3-yl}-acetamide]
- IC50 [1]: 1 nM
- IC50 [2]: 76 nM

Structure (SMILES): c1cnc2nc(Oc3ccc4cc(CN5CCCCC5)[nH]c4c3)sc2c1 [Example 71, 2-(2-Piperidin-1-ylmethyl-1H-indol-6-yloxy)-thiazolo[4,5-b]pyridine]
- IC50 [1]: 17 nM
- IC50 [2]: 87 nM

Structure (SMILES): CC(=O)N[C@H]1C[C@H]2CC[C@@H](C1)N2Cc1cc2ccc(Oc3nc4ncccc4s3)cc2[nH]1 [Example 72, meso-endo-N-{8-[6-(Thiazolo[4,5-b]pyridin-2-yloxy)-1H-indol-2-ylmethyl]-8-aza-bicyclo[3.2.1]oct-3-yl}-acetamide]
- IC50 [1]: 27 nM
- IC50 [2]: 100 nM

Structure (SMILES): O=C(O)C1CCN(CCc2coc3cc(Oc4nc5ccccc5s4)ccc23)CC1 [Example 80, 1-{2-[6-(Benzothiazol-2-yloxy)-benzofuran-3-yl]-ethyl}-piperidine-4-carboxylic acid]
- IC50 [1]: 48 nM
- IC50 [2]: 350 nM

Structure (SMILES): O=C(O)CN[C@H]1C[C@H]2CC[C@@H](C1)N2Cc1cc2ccc(Oc3nc4ccccc4s3)cc2o1 [Example 81, meso-endo-{8-[6-(Benzothiazol-2-yloxy)-benzofuran-2-ylmethyl]-8-aza-bicyclo[3.2.1]oct-3-ylamino}-acetic acid]
- IC50 [1]: 29 nM
- IC50 [2]: 450 nM

Structure (SMILES): CC(=O)N[C@H]1C[C@H]2CC[C@@H](C1)N2Cc1cc2cc(Oc3nc4ccccc4s3)ccc2o1 [Example 83, meso-endo-N-{8-[5-(Benzothiazol-2-yloxy)-benzofuran-2-ylmethyl]-8-aza-bicyclo[3.2.1]oct-3-yl}-acetamide formate]
- IC50 [1]: 70 nM
- IC50 [2]: 119 nM

Structure (SMILES): CC(=O)N[C@H]1C[C@H]2CC[C@@H](C1)N2Cc1cc2cc(Oc3nc4c(F)cccc4s3)ccc2o1 [Example 85, meso-endo-N-{8-[5-(4-Fluoro-benzothiazol-2-yloxy)-benzofuran-2-ylmethyl]-8-aza-bicyclo[3.2.1]oct-3-yl}-acetamide]
- IC50 [1]: 17 nM
- IC50 [2]: 210 nM

Structure (SMILES): c1cnc2nc(Oc3ccc4oc(CN5CCCCC5)cc4c3)sc2c1 [Example 86, 2-(2-Piperidin-1-ylmethyl-benzofuran-5-yloxy)-thiazolo[4,5-b]pyridine]
- IC50 [1]: 68 nM
- IC50 [2]: 85 nM

Structure (SMILES): CC(=O)N[C@H]1C[C@H]2CC[C@@H](C1)N2Cc1cc2cc(Oc3nc4ncccc4s3)ccc2o1 [Example 87, meso-endo-N-{8-[5-(Thiazolo[4,5-b]pyridin-2-yloxy)-benzofuran-2-ylmethyl]-8-aza-bicyclo[3.2.1]oct-3-yl}-acetamide]
- IC50 [1]: 35 nM
- IC50 [2]: 77 nM

Structure (SMILES): NC(=O)C1CCN(Cc2cc3cc(Oc4nc5ncccc5s4)ccc3o2)CC1 [Example 88, 1-[5-(Thiazolo[4,5-b]pyridin-2-yloxy)-benzofuran-2-ylmethyl]-piperidine-4-carboxylic acid amide]
- IC50 [1]: 11 nM
- IC50 [2]: 320 nM

Structure (SMILES): NC(=O)N1CC2CN(Cc3cc4cc(Oc5nc6ncccc6s5)ccc4o3)CC2C1 (stereo not shown) [Example 91, 5-[5-(Thiazolo[4,5-b]pyridin-2-yloxy)-benzofuran-2-ylmethyl]-hexahydro-pyrrolo[3,4-c]pyrrole-2-carboxylic acid amide]
- IC50 [1]: 88 nM
- IC50 [2]: 97 nM

Structure (SMILES): CS(=O)(=O)C1CCN(Cc2cc3cc(Oc4nc5ncccc5s4)ccc3o2)CC1 [Example 92, 2-[2-(4-Methanesulfonyl-piperidin-1-ylmethyl)-benzofuran-5-yloxy]-thiazolo[4,5-b]pyridine]
- IC50 [1]: 51 nM
- IC50 [2]: 400 nM

Structure (SMILES): NC(=O)N1C[C@H]2CC[C@@H](C1)N2Cc1cc2cc(Oc3nc4ncccc4s3)ccc2o1 [Example 94, meso-8-[5-(Thiazolo[4,5-b]pyridin-2-yloxy)-benzofuran-2-ylmethyl]-3,8-diaza-bicyclo[3.2.1]octane-3-carboxylic acid amide]
- IC50 [1]: 102 nM
- IC50 [2]: 202 nM
